These compounds were tested against T1, recombinant murine ANT1 (mANT1; adenine nucleotide translocase 1) (Mus musculus, UniProt P48962) (assay: inhibition of fatty-acid-activated proton conductance, planar lipid bilayer with reconstituted ANT1). Details: not given.
T1 construct: gene Slc25a4
T1 sequence (P48962 2-298): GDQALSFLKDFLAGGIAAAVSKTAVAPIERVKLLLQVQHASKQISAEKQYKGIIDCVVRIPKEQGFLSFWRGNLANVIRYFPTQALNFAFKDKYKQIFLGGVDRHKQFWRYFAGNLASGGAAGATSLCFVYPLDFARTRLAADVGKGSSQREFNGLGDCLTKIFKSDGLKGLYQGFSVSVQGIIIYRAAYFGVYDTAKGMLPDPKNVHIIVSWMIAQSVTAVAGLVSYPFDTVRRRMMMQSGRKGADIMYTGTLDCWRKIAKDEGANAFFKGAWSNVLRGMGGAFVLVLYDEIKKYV
Assay type: biochemical
Work on `CO[C@H](C/C=C\C=C\CC/C=C/C[C@H](C)/C=C/C(=C\C(=O)O)CC(=O)O)/C(C)=C\C=C(/C)C(=O)O` [bongkrekic acid] yielded an EC50 of 32.3 ± 11.4 µM.

Same assay, conditions: read-out: EC50
With `Nc1nc2c(ncn2[C@@H]2O[C@H](COP(=O)(O)OP(=O)(O)OP(=O)(O)O)[C@@H](O)[C@H]2O)c(=O)[nH]1` [GTP] the EC50 was 3320 ± 93 µM. `Nc1ncnc2c1ncn2[C@@H]1O[C@H](COP(=O)(O)O)[C@@H](O)[C@H]1O` [AMP] was tested, and the EC50 was 2660 ± 817 µM. `Nc1nc2c(ncn2[C@@H]2O[C@H](COP(=O)(O)OP(=O)(O)O)[C@@H](O)[C@H]2O)c(=O)[nH]1` [GDP] was tested, and the EC50 was 5410 ± 2010 µM. Work on `Nc1ncnc2c1ncn2[C@@H]1O[C@H](COP(=O)(O)OP(=O)(O)OP(=O)(O)O)[C@@H](O)[C@H]1O` [ATP] yielded an EC50 of 250 ± 34 µM. Compound `Nc1ncnc2c1ncn2[C@@H]1O[C@H](COP(=O)(O)OP(=O)(O)O)[C@@H](O)[C@H]1O` [ADP] has an EC50 of 1310 ± 537 µM.

From paper PMC7958136, “ANT1 Activation and Inhibition Patterns Support the Fatty Acid Cycling Mechanism for Proton Transport” (International Journal of Molecular Sciences, 2021)
